The values that follow come from PMC11604048, “Constrained TACC3 peptidomimetics for a non-canonical protein–protein interface elucidate allosteric communication in Aurora-A kinase” (Chemical Science, 2024).

As usually defined, the IC50 is the concentration that inhibits the measured activity by half.

Like-named read-outs stand apart in the source and are kept apart here. *1 amine or outer side, *2 acyl side, *3 side chain or, on linkers, in order; H or OH if unused. Where a SMILES comes first, the peptide text is derived from it. Bridges are numbered along the chain shown (N, C = ends). [ ]: non-standard residue; d: D form. Biphenyl(4,4'-CH2)2 = c1cc(-c2ccc(C[*:2])cc2)ccc1C[*:1]; Maleimide(3,4-diyl) = O=C1NC(=O)C([*:2])=C1[*:1]; Bpa = N[C@@H](Cc1ccc(C(=O)c2ccccc2)cc1)C(=O)O; Pro(trans-4-F) = O=C(O)[C@@H]1C[C@@H](F)CN1; Phe(4-Br) = N[C@@H](Cc1ccc(Br)cc1)C(=O)O Bounds are passed on as bounds.

The assay concerns the target T1, Aurora-A122-403-C290A/C393A (Homo sapiens, UniProt O14965, C290A/C393A).
T1 construct: Human Aurora-A kinase domain 122-403 wild-type or C290A/ C393A mutant; His tag (pET30TEV vector) (N, cleaved yes); made in house; host or cells: E. coli RIL, co-expressed with lambda phosphatase (Aurora-A); tracer by solid phase synthesis
T1 sequence (O14965 122-403 C290A/C393A): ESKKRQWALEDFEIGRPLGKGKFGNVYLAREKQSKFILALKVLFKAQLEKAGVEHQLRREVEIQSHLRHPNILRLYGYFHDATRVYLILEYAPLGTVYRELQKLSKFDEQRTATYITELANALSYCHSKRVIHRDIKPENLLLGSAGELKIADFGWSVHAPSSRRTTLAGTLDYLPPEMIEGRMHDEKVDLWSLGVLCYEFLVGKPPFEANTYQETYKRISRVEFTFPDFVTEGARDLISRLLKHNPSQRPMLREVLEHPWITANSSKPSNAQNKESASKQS
The experiment in a line: Competition FA assay against FAM-Ahx-TACC3 522-536 tracer. Conditions: for fold enhanced inhibitory potency (IC50) compared to the WT peptide: competition FA IC50 ratio vs WT. In kind it is binding. The method, then:
Once completed, the mixtures were transferred into SPPS fritted reaction vessels and washed with H2O (5X, 10 mL, 2 min), DMF (5X, 5mL, 2 min) and DCM (5X, 5 mL, 2 min). The clean resins were dried under vacuum and the cyclic peptides cleaved from the resin following the general procedures described in previous sections. After Et2O precipitation, the crude materials were freeze-dried and redissolved in H2O/MeCN/TFA 90/10/0.1% v/v for preparative HPLC purification.
All disulfide peptide variants (ox) were produced in situ from their free-thiol solid precursors. For this, 2 mg of the pure peptide materials were dissolved in aqueous DMSO 33% v/v to a 10 mM concentration and were left open to air oxidation at room temperature overnight. […]
the peptides were employed for FA competition assays and IC50 evaluation without further additional […]
Fluorescence anisotropy (FA) assays – General information.
All assays were performed using 384-well plates(Greiner Bio-one, UK). […]
produced as described previously.11 All samples were prepared in 25 mM Tris,150 mM NaCl, 5 mM MgCl2, pH= 7.5, unless otherwise stated, and tested in triplicate using an EnVisionTM 2103 MultiLabel plate reader (PerkinElmer; Waltham, MA, USA).The parameters were set as follows: Excitation wavelength = 480 nm (30 nm bandwidth) and emission wavelength = 535 nm (30 nm bandwidth). Measured data were processed and analysed as previously described.12 Specifically, the perpendicular intensity (P) and parallel intensity (S) were subtracted by the control values and used for calculations of intensity and anisotropy using the following Equations 1, 2, 3, 4, and 5:
I= (2PG) + S Eq. (SI − 5)
r = (S − PG) Eq. (SI − 6)
L = r − r௠௜௡ Eq. (SI − 7)
y = (k + x + [FL]) − ඥ(k + x + [FL]2 − 4 ∗ x ∗ [FL]) Eq. (SI − 8)
y = r + r௠௜௡ − r௠௔௫ Eq. (SI − 9)
Where I = total intensity; P = perpendicular intensity; S = parallel intensity; G = instrument factor; r = anisotropy; Lb = ligand bound fraction; λ = change in intensity between bound and unbound states which […]
FA direct binding assays. […]
starting from 700 μM, diluted over 24 points in a 1/2 regime using the FAM-Ahx-labeled peptides at a final fixed concentration of 50 nM per well.
FA competition assays were performed using the same plates and buffer as described above, with the initial […]
14 points in a 1/2 regime. […]
after 4 h of incubation to enable appropriate sample equilibration. To prevent sample oxidation, when sulfhydryl peptides were analyzed DTT was added to the buffer (5 mM). In competition mode, the average anisotropy and the average standard deviation of the values derived from equation SI-6 were calculated and fit to a sigmoidal logistic model (equation SI-9) using Origin 2021. When using peptides for which full […]
For consistency, all the data […]
indicating the corresponding SD. […]

[1] abbreviates: as E1, oxidised (disulfide) species made in situ from 10 mM stock in aqueous DMSO 33% v/v, air, overnight, WT control (+DMSO) given the same DMSO incubation, mean ± SD, n = 3, read-out: IC50 (ox).
[2] abbreviates: as E1, Table S3 (mal): maleimide-constrained species, WT value is an individual replica control assay, mean ± SD, n = 3, SD, read-out: IC50 (mal).

As for `CC(=O)N[C@@H](CCC(=O)O)C(=O)N[C@@H](CCC(=O)O)C(=O)N[C@@H](CO)C(=O)N[C@@H](Cc1ccc(I)cc1)C(=O)N[C@@H](CCCNC(=N)N)C(=O)N[C@@H](CC(=O)O)C(=O)N1CCC[C@H]1C(=O)N[C@@H](C)C(=O)N[C@@H](CCC(=O)O)C(=O)N[C@H](C(=O)N[C@@H](CC(C)C)C(=O)NCC(=O)N[C@H](C(=O)NCC(=O)N[C@@H](C)C(N)=O)[C@@H](C)O)C(C)C` [TACC3 522-536_(4-I)525F], the half-maximal inhibitory concentration (IC50) (SD, read-out: IC50) worked out at 34 ± 3 µM.

Regarding `CC(=O)N[C@@H](CCC(=O)O)C(=O)N[C@@H](CCC(=O)O)C(=O)N[C@@H](CO)C(=O)N[C@@H](Cc1ccccc1)C(=O)N[C@@H](CCCNC(=N)N)C(=O)N[C@@H](CC(=O)O)C(=O)N1CCC[C@H]1C(=O)N[C@@H](C)C(=O)N[C@@H](CCC(=O)O)C(=O)N[C@H]1CSSC[C@@H](C(=O)NCC(=O)N[C@@H](C)C(N)=O)NC(=O)CNC(=O)[C@H](CC(C)C)NC1=O` [TACC3 522-536 V531C/T534C (ox)] (Ac-EESFRDPAECLGCGA-NH2; disulfide 10-13), under setting [1], the IC50 was at least 500 µM.

Consider `CC(=O)N[C@@H](CCC(=O)O)C(=O)N[C@@H](CCC(=O)O)C(=O)N[C@@H](CO)C(=O)N[C@@H](Cc1ccccc1)C(=O)N[C@@H](CCCNC(=N)N)C(=O)N[C@@H](CS)C(=O)N1CCC[C@H]1C(=O)N[C@@H](C)C(=O)N[C@@H](CS)C(=O)N[C@H](C(=O)N[C@@H](CC(C)C)C(=O)NCC(=O)N[C@H](C(=O)NCC(=O)N[C@@H](C)C(N)=O)[C@@H](C)O)C(C)C` [TACC3 522-536 D527C/E530C (red)] (Ac-EESFRCPACVLGTGA-NH2), for which the IC50 (as E1, free-sulfhydryl (reduced) species, DTT 5 mM in buffer, WT control (+DTT), mean ± SD, n = 3, read-out: IC50 (red)) was at least 500 µM.

For `CC(=O)N[C@@H](CCC(=O)O)C(=O)N[C@@H](CCC(=O)O)C(=O)N[C@@H](CO)C(=O)N[C@H]1CSC2=C(SC[C@@H](C(=O)N[C@@H](C)C(=O)N[C@@H](CCC(=O)O)C(=O)N[C@H](C(=O)N[C@@H](CC(C)C)C(=O)NCC(=O)N[C@H](C(=O)NCC(=O)N[C@@H](C)C(N)=O)[C@@H](C)O)C(C)C)NC(=O)[C@H](CC(=O)O)NC(=O)[C@H](CCCNC(=N)N)NC1=O)C(=O)NC2=O` [TACC3 522-536 F525C/P528C (mal)] (Ac-EESCRDCAEVLGTGA-NH2; linker 4-7 via Maleimide(3,4-diyl)), the half-inhibitory concentration (IC50) under setting [2] was found to be 244 ± 28 µM. As to `CC(=O)N[C@@H](CCC(=O)O)C(=O)N[C@@H](CCC(=O)O)C(=O)N[C@@H](CO)C(=O)N[C@@H](Cc1ccc(C(=O)c2ccccc2)cc1)C(=O)N[C@@H](CCCNC(=N)N)C(=O)N[C@@H](CC(=O)O)C(=O)N1CCC[C@H]1C(=O)N[C@@H](C)C(=O)N[C@@H](CCC(=O)O)C(=O)N[C@H](C(=O)N[C@@H](CC(C)C)C(=O)NCC(=O)N[C@H](C(=O)NCC(=O)N[C@@H](C)C(N)=O)[C@@H](C)O)C(C)C` [TACC3 522-536_(pBnz) -525F] (Ac-EES[Bpa]RDPAEVLGTGA-NH2), the IC50 is at least 500 µM. With `CC(=O)N[C@@H](CC(C)C)C(=O)N[C@@H](CCC(=O)O)C(=O)N[C@@H](CC(C)C)C(=O)N[C@@H](CCCCN)C(=O)N[C@@H](CCC(=O)O)C(=O)N[C@@H](CCC(=O)O)C(=O)N[C@H]1CSCc2ccc(cc2)-c2ccc(cc2)CSC[C@@H](C(=O)N[C@H](C(=O)N[C@@H](CC(C)C)C(N)=O)C(C)C)NC(=O)[C@H](C)NC(=O)[C@@H]2CCCN2C(=O)[C@H](CC(=O)O)NC(=O)[C@H](CCCNC(=N)N)NC(=O)[C@H](Cc2ccccc2)NC1=O` [TACC3 518-532 S524C/E530C (Bph)] (Ac-LELKEECFRDPACVL-NH2; linker 7-13 via Biphenyl(4,4'-CH2)2), the “fold enhanced inhibitory potency (IC50) compared to the WT peptide” value was “up to 4 fold”.

Consider `CC(=O)N[C@@H](CCC(=O)O)C(=O)N[C@@H](CCC(=O)O)C(=O)N[C@H]1CSSC[C@@H](C(=O)N2CCC[C@H]2C(=O)N[C@@H](C)C(=O)N[C@@H](CCC(=O)O)C(=O)N[C@H](C(=O)N[C@@H](CC(C)C)C(=O)NCC(=O)N[C@H](C(=O)NCC(=O)N[C@@H](C)C(N)=O)[C@@H](C)O)C(C)C)NC(=O)[C@H](CCCNC(=N)N)NC(=O)[C@H](Cc2ccccc2)NC1=O` [TACC3 522-536 S524C/D527C (ox)] (Ac-EECFRCPAEVLGTGA-NH2; disulfide 3-6), for which the IC50 under setting [1] was at least 500 µM. In the case of `CC(=O)N[C@@H](CCC(=O)O)C(=O)N[C@@H](CCC(=O)O)C(=O)N[C@@H](CO)C(=O)N[C@@H](Cc1ccccc1)C(=O)N[C@@H](CCCNC(=N)N)C(=O)N[C@H]1CSC2=C(SC[C@@H](C(=O)N[C@H](C(=O)N[C@@H](CC(C)C)C(=O)NCC(=O)N[C@H](C(=O)NCC(=O)N[C@@H](C)C(N)=O)[C@@H](C)O)C(C)C)NC(=O)[C@H](C)NC(=O)[C@@H]3CCCN3C1=O)C(=O)NC2=O` [TACC3 522-536 D527C/E530C (mal)] (Ac-EESFRCPACVLGTGA-NH2; linker 6-9 via Maleimide(3,4-diyl)), under setting [2], the IC50 was determined as 186 ± 50 µM. `CC(=O)N[C@@H](CCC(=O)O)C(=O)N[C@@H](CCC(=O)O)C(=O)N[C@@H](CO)C(=O)N[C@@H](Cc1ccccc1)C(=O)N[C@@H](CCCNC(=N)N)C(=O)N[C@@H](CC(=O)O)C(=O)N1CCC[C@H]1C(=O)N[C@@H](C)C(=O)N[C@H]1CSSC[C@@H](C(=O)N[C@H](C(=O)NCC(=O)N[C@@H](C)C(N)=O)[C@@H](C)O)NC(=O)[C@H](CC(C)C)NC(=O)[C@H](C(C)C)NC1=O` [TACC3 522-536 E530C/G533C (ox)] (Ac-EESFRDPACVLCTGA-NH2; disulfide 9-12): the IC50 under setting [1] was at least 500 µM. On to `CC(=O)N[C@@H](CCC(=O)O)C(=O)N[C@@H](CCC(=O)O)C(=O)N[C@@H](CO)C(=O)N[C@@H](Cc1ccccc1)C(=O)N[C@@H](CCCNC(=N)N)C(=O)N[C@@H](CC(=O)O)C(=O)N1CCC[C@H]1C(=O)N[C@@H](C)C(=O)N[C@@H](CCC(=O)O)C(=O)N[C@H]1CSC2=C(SC[C@@H](C(=O)NCC(=O)N[C@@H](C)C(N)=O)NC(=O)CNC(=O)[C@H](CC(C)C)NC1=O)C(=O)NC2=O` [TACC3 522-536 V531C/T534C (mal)] (Ac-EESFRDPAECLGCGA-NH2; linker 10-13 via Maleimide(3,4-diyl)), for which the IC50 under setting [2] was 412 ± 73 µM. On to `CC(=O)N[C@@H](CC(C)C)C(=O)N[C@@H](CCC(=O)O)C(=O)N[C@@H](CC(C)C)C(=O)N[C@@H](CCCCN)C(=O)N[C@@H](CCC(=O)O)C(=O)N[C@@H](CCC(=O)O)C(=O)N[C@H]1CSCc2ccc(cc2)-c2ccc(cc2)CSC[C@@H](C(=O)N[C@H](C(=O)N[C@@H](CC(C)C)C(N)=O)C(C)C)NC(=O)[C@H](C)NC(=O)[C@@H]2C[C@@H](F)CN2C(=O)[C@H](CC(=O)O)NC(=O)[C@H](CCCNC(=N)N)NC(=O)[C@H](Cc2ccc(Br)cc2)NC1=O` [TACC3 518-532-S/E-Bph-BrF/fP] (Ac-LELKEEC[Phe(4-Br)]RD[Pro(trans-4-F)]ACVL-NH2; linker 7-13 via Biphenyl(4,4'-CH2)2), for which the half-inhibitory concentration (IC50) (SD, read-out: IC50) is 16 ± 1 µM. `CC(=O)N[C@@H](CC(C)C)C(=O)N[C@@H](CCC(=O)O)C(=O)N[C@H]1CSCc2ccc(cc2)-c2ccc(cc2)CSC[C@@H](C(=O)N[C@@H](CC(=O)O)C(=O)N2CCC[C@H]2C(=O)N[C@@H](C)C(=O)N[C@@H](CCC(=O)O)C(=O)N[C@H](C(=O)N[C@@H](CC(C)C)C(N)=O)C(C)C)NC(=O)[C@H](Cc2ccccc2)NC(=O)[C@H](CO)NC(=O)[C@H](CCC(=O)O)NC(=O)[C@H](CCC(=O)O)NC(=O)[C@H](CCCCN)NC1=O` [TACC3 518-532 L520C/R526C (Bph)] (Ac-LECKEESFCDPAEVL-NH2; linker 3-9 via Biphenyl(4,4'-CH2)2): the “fold enhanced inhibitory potency (IC50) compared to the WT peptide” value is recorded as “up to 4 fold”.
